Source: patent US20240011041A1, “PHAGE COMPOSITIONS FOR P[…]-CAS SYSTEMS AND METHODS OF USE THEREOF” (priority 2020, published 2024)
Where two headings read alike, the source gives them in different places.

System: Pseudomonas aeruginosa isolates b1121, b2631, b3144
Assay: Tobramycin MIC of the challenge isolates
Assay type: cell-based
Conditions: read-out: TOB MIC

NC[C@H]1O[C@H](O[C@H]2[C@H](O)[C@@H](O[C@H]3O[C@H](CO)[C@@H](O)[C@H](N)[C@H]3O)[C@H](N)C[C@@H]2N)[C@H](N)C[C@@H]1O [TOB, tobramycin] was tested, and the MIC (isolate b1121, Respiratory) was 0.5 µg/mL, the MIC (isolate b2631, CF isolate) was 0.5 µg/mL and the MIC (isolate b3144, CF isolate) was 2 µg/mL.
